The source made the active and inactive calls. The rule behind the calls is not given here.
Tested on: CCRIS mutagenicity, Ames/micronucleus/aberration tests
Test: CCRIS mutagenicity studies
Settings: Test System: AMES SALMONELLA TYPHIMURIUM
[1] = Strain/Indicator: TA100, Metabolic Activation: NONE, Method: STANDARD PLATE

In the case of `O=NN(CCO)CCO`, the mutagenic call (Strain/Indicator: TA97, Metabolic Activation: HAMSTER, LIVER, S-9, AROCLOR 1254 (10%), Method: PREINCUBATION) is reported as “active; positive”, the mutagenic call (Strain/Indicator: TA97, Metabolic Activation: NONE, Method: PREINCUBATION) is reported as “active; positive” and the mutagenic call (Strain/Indicator: TA97, Metabolic Activation: RAT, LIVER, S-9, AROCLOR 1254 (10%), Method: PREINCUBATION) is reported as “active; positive”. For the same compound, the mutagenic call (Strain/Indicator: TA98, Metabolic Activation: HAMSTER, LIVER, S-9, AROCLOR 1254 (10%), Method: PREINCUBATION) was “active; positive”, the mutagenic call (Strain/Indicator: TA98, Metabolic Activation: NONE, Method: PREINCUBATION) was “active; positive” and the mutagenic call (Strain/Indicator: TA98, Metabolic Activation: RAT, LIVER, S-9, AROCLOR 1254 (10%), Method: PREINCUBATION) was “active; positive”. The mutagenic call (Strain/Indicator: TA100, Metabolic Activation: HAMSTER, LIVER, S-9, AROCLOR 1254 (10%), Method: PREINCUBATION) was “active; positive”, the mutagenic call [1] was “active; positive” and the mutagenic call (Strain/Indicator: TA100, Metabolic Activation: RABBIT, LIVER, S-9, Method: STANDARD PLATE) was “inactive; negative”. For the same compound, the mutagenic call (Strain/Indicator: TA100, Metabolic Activation: RABBIT, LUNG, S-9, Method: STANDARD PLATE) was “inactive; negative”, the mutagenic call (Strain/Indicator: TA100, Metabolic Activation: RABBIT, NASAL, S-9, Method: STANDARD PLATE) was “active; positive” and the mutagenic call (Strain/Indicator: TA100, Metabolic Activation: RAT, LIVER, S-9, AROCLOR 1254 (10%), Method: PREINCUBATION) was “active; positive”. The mutagenic call (Strain/Indicator: TA100, Metabolic Activation: RAT, LIVER, S-9, Method: STANDARD PLATE) was “inactive; negative”, the mutagenic call (Strain/Indicator: TA100, Metabolic Activation: RAT, LUNG, S-9, Method: STANDARD PLATE) was “active; positive” and the mutagenic call (Strain/Indicator: TA100, Metabolic Activation: RAT, NASAL, S-9, Method: STANDARD PLATE) was “active; positive”. The mutagenic call (Strain/Indicator: TA1535, Metabolic Activation: HAMSTER, LIVER, S-9, AROCLOR 1254 (10%), Method: PREINCUBATION) was “active; positive”, the mutagenic call (Strain/Indicator: TA1535, Metabolic Activation: NONE, Method: PREINCUBATION) was “inactive; negative” and the mutagenic call (Strain/Indicator: TA1535, Metabolic Activation: RAT, LIVER, S-9, AROCLOR 1254 (10%), Method: PREINCUBATION) was “active; positive”.
`Nc1snc2ccc(Cl)cc12` was tested, and the mutagenic call (Strain/Indicator: TA98, Metabolic Activation: NONE, Method: STANDARD PLATE) was “inactive; negative”, the mutagenic call (Strain/Indicator: TA98, Metabolic Activation: S-9, Method: STANDARD PLATE) was “active; positive” and the mutagenic call [1] was “inactive; negative”. For the same compound, the mutagenic call (Strain/Indicator: TA100, Metabolic Activation: S-9, Method: STANDARD PLATE) was “active; positive”, the mutagenic call (Strain/Indicator: TA1535, Metabolic Activation: NONE, Method: STANDARD PLATE) was “inactive; negative” and the mutagenic call (Strain/Indicator: TA1535, Metabolic Activation: S-9, Method: STANDARD PLATE) was “inactive; negative”. For the same compound, the mutagenic call (Strain/Indicator: TA1537, Metabolic Activation: NONE, Method: STANDARD PLATE) was “inactive; negative” and the mutagenic call (Strain/Indicator: TA1537, Metabolic Activation: S-9, Method: STANDARD PLATE) was “active; positive”.
